# Reference: US20260130933A1, “PHARMACEUTICAL COMPOSITION FOR PREVENTION OR TREATMENT OF NEPHROPATHY AND/OR DIABETES MELLITUS, COMPRISING ENAVOGLIFLOZIN” (DAEWOONG PHARMACEUTICAL CO., LTD., priority 2022, published 2026)
# Test: Example 2: phase 3 trial, enavogliflozin 0.3 mg vs dapagliflozin 10 mg once a day for 24 weeks added to metformin in patients with type 2 diabetes (same efficacy, exploratory and safety endpoints)
# Type: in vivo, human
# Procedure: Subjects who met the inclusion/exclusion criteria were administered a placebo of the clinical trial drug under single-blind (subject blinding) conditions during a 2-week run-in period while continuing to receive metformin. […] The randomized subjects were administered two tablets of the clinical trial drug for each administration group once a day, and then visited the institution at weeks 6, 12, 18, and 24 during the 24-week administration period to conduct efficacy and safety evaluations.
# • 1. Change in HbA1c at week 24 after administration of clinical trial drug compared to Visit 2 (randomization)
# • 1. Change in HbA1c at each time point of weeks 6, 12, and 18 after administration of clinical trial drug compared to Visit 2 (randomization) • 2. Change in FPG at each time point of weeks 6, 12, 18, and 24 after administration of clinical trial drug compared to Visit 2 (randomization) • 3. Proportion of subjects achieving HbA1c<7% at each time point of weeks 6, 12, 18, and 24 after administration of clinical trial drug • 4. Proportion of subjects achieving HbA1c<6.5% at each time point of weeks 6, 12, 18, and 24 after administration of clinical trial drug • 5. Proportion of subjects achieving therapeutic response (HbA1c change (HbA1c at Visit 2-HbA1c at each evaluation time point)>0.5% or HbA1c<7% at each evaluation time point compared to Visit 2 (randomization)) at each time point of weeks 6, 12, 18 and 24 after administration of clinical trial drug
# • 1. Change in fasting c-peptide at each time point of weeks 6, 12, 18, and 24 after administration of clinical trial drug compared to Visit 2 (randomization) • 2. Change in body weight at each time point of weeks 6, 12, 18, and 24 after administration of clinical trial drug compared to Visit 2 (randomization) • 3. Change in fasting lipid concentration (total cholesterol, LDL-C, HDL-C, and triglycerides) at each time point of weeks 6, 12, 18, and 24 after administration of clinical trial drug compared to Visit 2 (randomization) • 4. Changes in systolic or diastolic blood pressure at each time point of weeks 6, 12, 18, and 24 after administration of clinical trial drug compared to Visit 2 (randomization) • 5. Changes in β-cell function and insulin resistance measured by HOMA-β and HOMA-IR at each time point of weeks 6, 12, 18, and 24 after administration of clinical trial drug compared to Visit 2 (randomization) • 6. Changes in renal function-related indicators (UACR, UGCR) measured by UACR at each time point of weeks 6, 12, 18, and 24 after administration of clinical trial drug compared to Visit 2 (randomization) • 7. Changes in obesity-related indicators (adiponectin, leptin) at each time point of weeks 6, 12, 18, and 24 after administration of clinical trial drug compared to Visit 2 (randomization)
# [1] = Baseline, modified per-protocol set 1, enavogliflozin 0.3 mg, dapagliflozin 10 mg
# [2] = Baseline, per-protocol set, enavogliflozin 0.3 mg, dapagliflozin 10 mg
smiles,measurement,setting,value
"CCOc1ccc(Cc2cc([C@@H]3O[C@H](CO)[C@@H](O)[C@H](O)[C@H]3O)ccc2Cl)cc1 [Dapagliflozin, reference compound]",Incidence of serious adverse drug reactions,24 weeks,7 case
same,"Adiponectin, Mean (SD)","Baseline, PPS",6.6 µg/mL
same,"Adiponectin, Median","Baseline, PPS",5.94 µg/mL
same,"HOMA-IR, Mean (SD)","Baseline, PPS",3.85
same,"HOMA-IR, Median","Baseline, PPS",3.05
same,"HOMA-β, Mean (SD)","Baseline, PPS",44.44
same,"HOMA-β, Median","Baseline, PPS",38.75
same,"Leptin, Mean (SD)","Baseline, PPS",11.76 ng/mL
same,"Leptin, Median","Baseline, PPS",8.32 ng/mL
same,"UACR, Mean (SD)","Baseline, PPS",57420 mg/kg
same,"UACR, Median","Baseline, PPS",15.50 g/kg
same,"UGCR, Mean (SD)","Baseline, PPS",1.83 mg/mg
same,"UGCR, Median","Baseline, PPS",0.15 mg/mg
same,"HDL-C, Mean (SD)","Baseline, mPPS1",46.90(9.17) mg/dL
same,"HDL-C, Median","Baseline, mPPS1",46.00 mg/dL
same,"LDL-C, Mean (SD)","Baseline, mPPS1",76.16(26.27) mg/dL
same,"LDL-C, Median","Baseline, mPPS1",75.00 mg/dL
same,"Triglycerides, Mean (SD)","Baseline, mPPS1",132.92(75.63) mg/dL
same,"Triglycerides, Median","Baseline, mPPS1",115.00 mg/dL
same,"Diastolic blood pressure, Mean (SD)","Baseline, mPPS2",75.92 mmHg
same,"Diastolic blood pressure, Median","Baseline, mPPS2",75.00 mmHg
same,"Systolic blood pressure, Mean (SD)","Baseline, mPPS2",127.44(14.12) mmHg
same,"Systolic blood pressure, Median","Baseline, mPPS2",127.00 mmHg
same,"fasting Total cholesterol, Mean (SD)",[1],137.87(26.64) mg/dL
same,"fasting Total cholesterol, Median",[1],139.00 mg/dL
same,"FPG, Mean (SD)",[2],149.33 mg/dL
same,"FPG, Median",[2],142.00 mg/dL
same,"HbA1c, Mean (SD)",[2],7.68%
same,"HbA1c, Median",[2],7.49%
same,"body weight, Mean (SD)",[2],70.52(11.81) kg
same,"body weight, Median",[2],69.70 kg
same,"fasting c-peptide, Mean (SD)",[2],0.74(0.23) ng/mL
same,"fasting c-peptide, Median",[2],0.71 ng/mL
same,"Adiponectin change from baseline, ANCOVA LS mean (SE)","Week 6, PPS",0.8 µg/mL
same,"Adiponectin change from baseline, Mean (SD)","Week 6, PPS",0.77 µg/mL
same,"Adiponectin change from baseline, Median","Week 6, PPS",0.51 ng/mL
same,"Adiponectin, Mean (SD)","Week 6, PPS",7.4 µg/mL
same,"Adiponectin, Median","Week 6, PPS",6.36 µg/mL
same,"HOMA-IR change from baseline, ANCOVA LS mean (SE)","Week 6, PPS",−1.31
same,"HOMA-IR change from baseline, Mean (SD)","Week 6, PPS",−1.46
same,"HOMA-IR change from baseline, Median","Week 6, PPS",−1.03
same,"HOMA-IR, Mean (SD)","Week 6, PPS",2.34
same,"HOMA-IR, Median","Week 6, PPS",2.07
same,"HOMA-β change from baseline, ANCOVA LS mean (SE)","Week 6, PPS",−1.79
same,"HOMA-β change from baseline, Mean (SD)","Week 6, PPS",−2.83
same,"HOMA-β change from baseline, Median","Week 6, PPS",1.10
same,"HOMA-β, Mean (SD)","Week 6, PPS",41.10
same,"HOMA-β, Median","Week 6, PPS",42.20
same,"Leptin change from baseline, ANCOVA LS mean (SE)","Week 6, PPS",-1.62 ng/mL
same,"Leptin change from baseline, Mean (SD)","Week 6, PPS",-1.61 ng/mL
same,"Leptin change from baseline, Median","Week 6, PPS",-1.46 ng/mL
same,"Leptin, Mean (SD)","Week 6, PPS",9.85 ng/mL
same,"Leptin, Median","Week 6, PPS",5.51 ng/mL
same,"UACR change from baseline, ANCOVA LS mean (SE)","Week 6, PPS",8.13 g/kg
same,"UACR change from baseline, Mean (SD)","Week 6, PPS",4490 mg/kg
same,"UACR change from baseline, Median","Week 6, PPS",0.00 g/kg
same,"UACR, Mean (SD)","Week 6, PPS",62950 mg/kg
same,"UACR, Median","Week 6, PPS",13.90 g/kg
same,"UGCR change from baseline, ANCOVA LS mean (SE)","Week 6, PPS",50.10 mg/mg
same,"UGCR change from baseline, Mean (SD)","Week 6, PPS",47.54 mg/mg
same,"UGCR change from baseline, Median","Week 6, PPS",42.30 mg/mg
same,"UGCR, Mean (SD)","Week 6, PPS",48.64 mg/mg
same,"UGCR, Median","Week 6, PPS",43.08 mg/mg
same,"HDL-C change from baseline, ANCOVA LS mean (SE)","Week 6, mPPS1",1.60(0.61) mg/dL
same,"HDL-C change from baseline, Mean (SD)","Week 6, mPPS1",1.94(5.62) mg/dL
same,"HDL-C change from baseline, Median","Week 6, mPPS1",1.00 mg/dL
same,"HDL-C, Mean (SD)","Week 6, mPPS1",48.83(10.55) mg/dL
same,"HDL-C, Median","Week 6, mPPS1",48.50 mg/dL
same,"LDL-C change from baseline, ANCOVA LS mean (SE)","Week 6, mPPS1",4.20(1.95) mg/dL
same,"LDL-C change from baseline, Mean (SD)","Week 6, mPPS1",4.87(19.92) mg/dL
same,"LDL-C change from baseline, Median","Week 6, mPPS1",3.00 mg/dL
same,"LDL-C, Mean (SD)","Week 6, mPPS1",81.20(28.87) mg/dL
same,"LDL-C, Median","Week 6, mPPS1",76.50 mg/dL
same,"Triglycerides change from baseline, ANCOVA LS mean (SE)","Week 6, mPPS1",−10.14(7.09) mg/dL
same,"Triglycerides change from baseline, Mean (SD)","Week 6, mPPS1",−11.86(54.93) mg/dL
same,"Triglycerides change from baseline, Median","Week 6, mPPS1",-2.00 mg/dL
same,"Triglycerides, Mean (SD)","Week 6, mPPS1",120.41(53.12) mg/dL
same,"Triglycerides, Median","Week 6, mPPS1",104.50 mg/dL
same,"Diastolic blood pressure change from baseline, ANCOVA LS mean (SE)","Week 6, mPPS2",−1.47 mmHg
same,"Diastolic blood pressure change from baseline, Mean (SD)","Week 6, mPPS2",−1.10 mmHg
same,"Diastolic blood pressure change from baseline, Median","Week 6, mPPS2",0.00 mmHg
same,"Diastolic blood pressure, Mean (SD)","Week 6, mPPS2",74.57 mmHg
same,"Diastolic blood pressure, Median","Week 6, mPPS2",75.00 mmHg
same,"Systolic blood pressure change from baseline, ANCOVA LS mean (SE)","Week 6, mPPS2",−2.71(1.06) mmHg
same,"Systolic blood pressure change from baseline, Mean (SD)","Week 6, mPPS2",−1.98(11.14) mmHg
same,"Systolic blood pressure change from baseline, Median","Week 6, mPPS2",−1.50 mmHg
same,"Systolic blood pressure, Mean (SD)","Week 6, mPPS2",125.24(13.01) mmHg
same,"Systolic blood pressure, Median","Week 6, mPPS2",126.00 mmHg
same,"Adiponectin change from baseline, ANCOVA LS mean (SE)","Week 12, PPS",1.02 µg/mL
same,"Adiponectin change from baseline, Mean (SD)","Week 12, PPS",1.08 µg/mL
same,"Adiponectin change from baseline, Median","Week 12, PPS",0.83 ng/mL
same,"Adiponectin, Mean (SD)","Week 12, PPS",7.76 µg/mL
same,"Adiponectin, Median","Week 12, PPS",6.53 µg/mL
same,"HOMA-IR change from baseline, ANCOVA LS mean (SE)","Week 12, PPS",−1.60
same,"HOMA-IR change from baseline, Mean (SD)","Week 12, PPS",−1.74
same,"HOMA-IR change from baseline, Median","Week 12, PPS",−1.27
same,"HOMA-IR, Mean (SD)","Week 12, PPS",2.17
same,"HOMA-IR, Median","Week 12, PPS",1.89
same,"HOMA-β change from baseline, ANCOVA LS mean (SE)","Week 12, PPS",8.75
same,"HOMA-β change from baseline, Mean (SD)","Week 12, PPS",8.97
same,"HOMA-β change from baseline, Median","Week 12, PPS",4.55
same,"HOMA-β, Mean (SD)","Week 12, PPS",53.77
same,"HOMA-β, Median","Week 12, PPS",45.50
